# Measured values as given in the supplement of paper PMC10307832.
# Tests used:
# Assay in all cases: relative viability (nuclei count vs DMSO), 5 days (fraction); higher = more cells survive
# [1] = tested on: SK-MES-1
# Outline: (§1)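 Relative viability divides the nuclei count in treated wells by that in vehicle wells. Lung cancer cell lines were seeded in 1536-well plates, dosed by pin tool the next day, and fixed and stained after 5 days in one step with final 0.05% Triton X-100, 1% formaldehyde and 1 ug/ml Hoechst. Dosing was a single drug or a fixed anchor-drug dose plus five library-drug doses (not always all listed) in √10 steps, and values are medians of duplicate plates imaged at 4×.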
# [2] = tested on: COR-L 105
# Outline: as §1
# [3] = tested on: H3255
# Outline: as §1
# [4] = tested on: NCI-H1666
# Outline: as §1
# [5] = tested on: EMC-BAC-2
# Outline: as §1
# [6] = tested on: NCI-H520
# Outline: as §1
# [7] = tested on: LOU-NH91
# Outline: as §1
# [8] = tested on: NCI-H1563
# Outline: as §1
# [9] = tested on: A-427
# Outline: as §1
# [10] = tested on: LK-2
# Outline: as §1
# [11] = tested on: EKVX
# Outline: as §1
# [12] = tested on: HCC-366
# Outline: as §1
# [13] = tested on: NCI-H2170
# Outline: as §1
# [14] = tested on: NCI-H23
# Outline: as §1
# [15] = tested on: NCI-H1975
# Outline: as §1
# [16] = tested on: NCI-H596
# Outline: as §1
# [17] = tested on: NCI-H441
# Outline: as §1
# [18] = tested on: NCI-H1734
# Outline: as §1
# [19] = tested on: NCI-H1755
# Outline: as §1
# [20] = tested on: NCI-H1792
# Outline: as §1
# [21] = tested on: PC-3 [JPC-3]
# Outline: as §1
smiles,measurement,setting,value
Oc1nc(-c2ccc(C(F)(F)F)cc2)nc2c1CSCC2 [XAV939] + Cc1nc(NC(=O)N2CCC[C@H]2C(N)=O)sc1-c1ccnc(C(C)(C)C(F)(F)F)c1 [Alpelisib] (partner 2 µM),relative viability,[1]; first compound 0.08 µM,0.994
same,relative viability,[1]; first compound 0.253 µM,0.912
same,relative viability,[1]; first compound 0.8 µM,0.911
same,relative viability,[1]; first compound 2.53 µM,0.757
same,relative viability,[2]; first compound 0.08 µM,1.14
same,relative viability,[2]; first compound 0.253 µM,0.867
same,relative viability,[2]; first compound 0.8 µM,0.952
same,relative viability,[2]; first compound 2.53 µM,0.576
same,relative viability,[3]; first compound 0.08 µM,0.965
same,relative viability,[3]; first compound 0.253 µM,0.709
same,relative viability,[3]; first compound 0.8 µM,0.414
same,relative viability,[3]; first compound 2.53 µM,0.522
same,relative viability,[4]; first compound 0.08 µM,0.87
same,relative viability,[4]; first compound 0.253 µM,0.63
same,relative viability,[4]; first compound 0.8 µM,0.721
same,relative viability,[4]; first compound 2.53 µM,0.591
same,relative viability,[5]; first compound 0.08 µM,0.859
same,relative viability,[5]; first compound 0.253 µM,0.69
same,relative viability,[5]; first compound 0.8 µM,0.621
same,relative viability,[5]; first compound 2.53 µM,0.367
same,relative viability,[6]; first compound 0.08 µM,0.842
same,relative viability,[6]; first compound 0.253 µM,0.755
same,relative viability,[6]; first compound 0.8 µM,0.916
same,relative viability,[6]; first compound 2.53 µM,0.648
same,relative viability,[7]; first compound 0.08 µM,0.687
same,relative viability,[7]; first compound 0.253 µM,0.659
same,relative viability,[7]; first compound 0.8 µM,0.714
same,relative viability,[7]; first compound 2.53 µM,0.648
same,relative viability,[8]; first compound 0.08 µM,0.937
same,relative viability,[8]; first compound 0.253 µM,0.864
same,relative viability,[8]; first compound 0.8 µM,0.804
same,relative viability,[8]; first compound 2.53 µM,0.708
same,relative viability,[9]; first compound 0.08 µM,1.12
same,relative viability,[9]; first compound 0.253 µM,1.03
same,relative viability,[9]; first compound 0.8 µM,1.03
same,relative viability,[9]; first compound 2.53 µM,1.02
same,relative viability,[10]; first compound 0.08 µM,1.03
same,relative viability,[10]; first compound 0.253 µM,1.02
same,relative viability,[10]; first compound 0.8 µM,1.1
same,relative viability,[10]; first compound 2.53 µM,0.923
same,relative viability,[11]; first compound 0.08 µM,0.825
same,relative viability,[11]; first compound 0.253 µM,0.67
same,relative viability,[11]; first compound 0.8 µM,0.731
same,relative viability,[11]; first compound 2.53 µM,0.548
same,relative viability,[12]; first compound 0.08 µM,0.535
same,relative viability,[12]; first compound 0.253 µM,0.308
same,relative viability,[12]; first compound 0.8 µM,0.446
same,relative viability,[12]; first compound 2.53 µM,0.389
same,relative viability,[13]; first compound 0.08 µM,0.855
same,relative viability,[13]; first compound 0.253 µM,0.612
same,relative viability,[13]; first compound 0.8 µM,0.654
same,relative viability,[13]; first compound 2.53 µM,0.578
same,relative viability,[14]; first compound 0.08 µM,0.663
same,relative viability,[14]; first compound 0.253 µM,0.659
same,relative viability,[14]; first compound 0.8 µM,0.627
same,relative viability,[14]; first compound 2.53 µM,0.456
same,relative viability,[15]; first compound 0.08 µM,0.619
same,relative viability,[15]; first compound 0.253 µM,0.573
same,relative viability,[15]; first compound 0.8 µM,0.566
same,relative viability,[15]; first compound 2.53 µM,0.445
same,relative viability,[16]; first compound 0.08 µM,0.456
same,relative viability,[16]; first compound 0.253 µM,0.587
same,relative viability,[16]; first compound 0.8 µM,0.534
same,relative viability,[16]; first compound 2.53 µM,0.493
same,relative viability,[17]; first compound 0.08 µM,0.687
same,relative viability,[17]; first compound 0.253 µM,0.486
same,relative viability,[17]; first compound 0.8 µM,0.742
same,relative viability,[17]; first compound 2.53 µM,0.657
same,relative viability,[18]; first compound 0.08 µM,0.713
same,relative viability,[18]; first compound 0.253 µM,0.64
same,relative viability,[18]; first compound 0.8 µM,0.634
same,relative viability,[18]; first compound 2.53 µM,0.606
same,relative viability,[19]; first compound 0.08 µM,0.895
same,relative viability,[19]; first compound 0.253 µM,0.808
same,relative viability,[19]; first compound 0.8 µM,0.888
same,relative viability,[19]; first compound 2.53 µM,0.735
same,relative viability,[20]; first compound 0.08 µM,0.924
same,relative viability,[20]; first compound 0.253 µM,0.667
same,relative viability,[20]; first compound 0.8 µM,0.671
same,relative viability,[20]; first compound 2.53 µM,0.594
same,relative viability,[21]; first compound 0.08 µM,1
same,relative viability,[21]; first compound 0.253 µM,0.962
same,relative viability,[21]; first compound 0.8 µM,1.07
same,relative viability,[21]; first compound 2.53 µM,0.962
